# Experimental data taken from patent publication US20200325483A1, “SAFE DELIVERY OF CRISPR AND OTHER GENE THERAPIES TO LARGE FRACTIONS OF SOMATIC CELLS IN HUMANS AND ANIMALS” (priority 2016, published 2020).
# Where two headings read alike, the source gives them in different places. Ends that are not written are not given here.
# B1: IL-10: IL-10, injected to temper sepsis (protein, UniProt P22301 19-178, looked up)
# Interleukin-10: SPGQGTQSENSCTHFPGNLPNMLRDLRDAFSRVKTFFQMKDQLDNLLLKESLLEDFKGYLGCQALSEMIQFYLEEVMPQAENQDPDIKAHVNSLGENLKTLRLRLRRCHRFLPCENKSKAVEQVKNAFNKLQEKGIYKAMSEFDIFINYIEAYMTMKIRN
# Experiments:
# TNFα = settings: cited from earlier work
# humans = settings: cited from earlier work
# mice [1] = settings: cited from earlier work
# mice [2] = test: LPS LD50 in mouse model; format: in vivo
# Method: In mouse model the LD50 of LPS depends on liver protein synthesis. […] However, in mice pretreated with β-galactosamine to inhibit liver protein synthesis, the mouse LD50 is approximately 5 nanograms (200 ng/kg), 30,000 times less. By comparison, normal humans show reactions at 2-4 nanograms of LPS per kilogram. The human LD50 for LPS is below 5 micrograms per kilogram, three orders of magnitude lower than mice. Humans are […] larger yet die at doses only double the dose that kills a 25-gram mouse. […] Human LPS sensitivity is believed to be due to mutations in sialic acid binding Ig-like lectins (siglecs). Phenotypically, knockouts of siglecs produce hyper-reactive immune system components. The missing siglec-13 and inactivated siglec-17 that are active in other primates affects control over TLR4. TLR4 is the receptor for LPS. It is also the target for HMGB1, in DAMP signaling.
# sepsis [3] = settings: in vivo; cited from earlier work
# Dogs = settings: cited from earlier work
# Rodents = settings: cited from earlier work
# sepsis [4] = settings: animal studies, as long as there is not an underlying infection; cited from earlier work
molecule,measurement,setting,value
"COc1cc(CC(C)N)c(OC)cc1I (stereo not shown) [DOI, 2,5-Dimethoxy-4-iodoamphetamine]",TNFα inhibition (in words),TNFα,strongest TNFα inhibitor known
lipopolysaccharide [LPS],LPS LD50,"humans; average adult human, per person",300 micrograms
same,LPS LD50,humans; human,below 5 micrograms per kilogram
same,LPS dose at which reactions are shown,humans; normal humans,2-4 nanograms of LPS per kilogram
same,LPS LD50,"mice [1]; mice pretreated with β-galactosamine to inhibit liver protein synthesis, per animal",approximately 5 nanograms
same,LPS LD50,"mice [1]; normal 25 gram mice, per animal",approximately 150 micrograms
same,LPS LD50,mice [1]; normal 25 gram mice,~6 mg/kg
same,time for LD50 dose to complete its course,mice [1]; normal 25 gram mice,35 h
same,fold lower LD50 in β-galactosamine pretreated vs normal mice,mice [2],"30,000 times"
"ghrelin: Ghrelin, injected to rescue from sepsis (GSSFLSPEHQRVQQRKESKKPPAKLQPR; ends and bridges not checked; UniProt Q9UBU3 24-51, looked up)",rescue from sepsis (in words),sepsis [3],rescue from sepsis with remarkable effect
Polymyxin B sulfate,dose at which animals begin dying,Dogs,8 mg/kg
same,tolerated dose,Rodents,≥ 100 mg/kg
B1,effect on sepsis (in words),sepsis [4],effective in animal studies at tempering sepsis
